Results as given in patent US11247001B2, “Delivery device with cantilever structure and associated method of use” (De Motu Cordis Pty Ltd, priority 2016, dated 2022).

Assay: Particle deagglomeration: particle size distribution of the dose of dry powder emitted by the delivery device
Type: physicochemical
Details: for emitted dose: dry powder emitted from delivery device comprising a container for storing dry powder (FIG. 28, FIG. 29); for deagglomerated to the typical inhalable range: share of dry powder, delivery device with container
Excerpt: The performance of the delivery device can be measured by how closely the particle size distribution of the emitted powder approaches the original distribution.
An embodiment of the device that stored Mannitol on a corrugated reed was also compared to the embodiment of the device that stored and dispensed Mannitol from a blister.

emitted dose | deagglomerated to the typical inhalable range | Fine Particle Fraction < 5 um (%) (Table 2, performance of device, N = 8, 68% CI) | FPF (device that dispensed from a blister) | FPF (device that dispensed from the reed (corrugated reed)) | FPF (device with a reed) | Fine Particle Fraction < 5 um (%) (device with reed, N = 10, 68% CI) | FPF (device without a reed) | Fine Particle Fraction < 5 um (%) (device without reed, same flow conditions, N = 10, 68% CI) | Fine Particle Fraction < 5 um (%) (powder stored in and dispensed from blister, N = 10, 68% CI) | Fine Particle Fraction < 5 um (%) (powder stored in and dispensed from corrugated reed, N = 5, 68% CI) | Compound
72.4-92.0% | about 35% | – | – | – | – | – | – | – | – | – | CNCC(O)c1ccc(O)c(O)c1 (stereo not shown) [Adrenaline]
75.3-86.1% | About 50% | 48.0-60.9% | about 43% | about 44% | about 43% | 38.9-47.4% | about 31% | 26.8-35.1% | 38.9-47.4% | 40.6-48.2% | OC[C@@H](O)[C@@H](O)[C@H](O)[C@H](O)CO [Mannitol]
